Assay type in all cases: biochemical
One assay has as its target T1, bovine liver DHFR (Bos taurus, UniProt P00376).
T1 construct: bovine liver DHFR; from tissue; host or cells: bovine liver
T1 sequence (P00376 1-187): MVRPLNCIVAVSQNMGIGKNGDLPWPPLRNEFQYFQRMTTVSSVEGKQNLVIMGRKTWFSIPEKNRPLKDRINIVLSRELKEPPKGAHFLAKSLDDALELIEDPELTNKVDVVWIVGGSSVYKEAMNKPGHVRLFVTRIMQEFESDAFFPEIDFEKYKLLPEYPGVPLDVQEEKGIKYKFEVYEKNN
Put plainly: Dihydrofolate reductase assay. The settings on record: for Dihydrofolate reductase V: 7,8-dihydro form, relative to 7,8-dihydrobiopterin = 100, bovine liver DHFR. Here is the method:
These assays were carried out on the 7,8-dihydropterin analogs of the compounds of formula I which was tetrahydropterins. The 7,8-dihydropterinswere obtained commercially (in the case of dihydrobiopterin) or synthesized from the corresponding compound of formula I. Synthesis of 7,8-dihydropterins involved the combination of 0.27 μmole of a compound of formula I, 20 μg of horseradish peroxidase, 0.6 μmole of hydrogen peroxide in 0.1 ml of 0.5M potassium phosphate buffer, pH 7.5. After 3 min at room temperature, 10 μg of bovine liver catalase was added. The production of the 7,8-dihydropterin was verified by U.V. spectroscopy.
The assay was carried out with bovine liver DHFR using a modification of the method of Bailey and Ayling (J. Biol. Chem., 253, 1598 (1978)) where the desired dihydropterin replaced dihydrobiopterin, and the HPLC system used consisted of an anaerobic 0.1M acetic acid (with or without 10% acetonitrite) solvent on a 25 cm×4.6 mm Dupont TMS-Zorbax column. In our hands, dihydrobiopterin is reduced at a rate 2.5% that of the natural substrate dihydrofolate.

The next assay has as its target Tyrosine hydroxylase (Homo sapiens, UniProt P07101). The experiment in a line: Tyrosine hydroxylase cofactor assay. Particulars: relative to tetrahydrobiopterin = 100. Here is the method: Tyrosine hydroxylate was partially purified through a 25-45% ammonium sulfate fraction. […] The enzyme was assayed by a modification of the method of Nagatsu, T., Levitt, M., and Udenfriend, S. (Anal. Biochem. 9, 122, (1964)) where the Dowex chromatography step was replaced by a charcoal extraction.

For a further assay, the target named is T2, Tryptophan hydroxylase (Rattus norvegicus, UniProt Q8CGU9).
T2 construct: crude 30,000×g supernatant; from tissue
T2 sequence (Q8CGU9 1-485): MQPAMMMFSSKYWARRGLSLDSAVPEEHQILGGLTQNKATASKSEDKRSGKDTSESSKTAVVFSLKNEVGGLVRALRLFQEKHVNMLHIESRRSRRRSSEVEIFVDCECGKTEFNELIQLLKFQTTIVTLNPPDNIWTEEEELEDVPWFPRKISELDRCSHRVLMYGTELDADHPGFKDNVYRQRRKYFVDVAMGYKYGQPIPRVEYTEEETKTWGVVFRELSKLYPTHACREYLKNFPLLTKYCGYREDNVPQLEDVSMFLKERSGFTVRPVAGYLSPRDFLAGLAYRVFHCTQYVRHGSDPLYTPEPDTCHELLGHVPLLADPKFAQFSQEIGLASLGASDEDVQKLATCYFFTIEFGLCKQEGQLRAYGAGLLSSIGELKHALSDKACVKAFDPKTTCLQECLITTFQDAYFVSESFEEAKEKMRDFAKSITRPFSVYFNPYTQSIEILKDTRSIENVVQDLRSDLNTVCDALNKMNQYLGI
The experiment in a line: Tryptophan hydroxylase cofactor assay. The settings on record: relative to tetrahydrobiopterin = 100. Here is the method:
Trytophan hydroxylase was assayed according to a modification of the method of Renson J., et al (Biochem. Biophys. Acta 25: 504 (1966)). The preparation of tryptophan hydroxylase was a crude 30,000×g supernatant which had been desalted on a Sephadex G-25 (Trade Name) column (Boadle-Biker, M.C., Biochem Pharmacol. 28: 2129 (1979).

Assay [1] addresses T3, Phenylalanine hydroxylase (Rattus norvegicus, UniProt P04176).
T3 construct: Phenylalanine hydroxylase was prepared from rat liver; from tissue; host or cells: rat liver
T3 sequence (P04176 1-453): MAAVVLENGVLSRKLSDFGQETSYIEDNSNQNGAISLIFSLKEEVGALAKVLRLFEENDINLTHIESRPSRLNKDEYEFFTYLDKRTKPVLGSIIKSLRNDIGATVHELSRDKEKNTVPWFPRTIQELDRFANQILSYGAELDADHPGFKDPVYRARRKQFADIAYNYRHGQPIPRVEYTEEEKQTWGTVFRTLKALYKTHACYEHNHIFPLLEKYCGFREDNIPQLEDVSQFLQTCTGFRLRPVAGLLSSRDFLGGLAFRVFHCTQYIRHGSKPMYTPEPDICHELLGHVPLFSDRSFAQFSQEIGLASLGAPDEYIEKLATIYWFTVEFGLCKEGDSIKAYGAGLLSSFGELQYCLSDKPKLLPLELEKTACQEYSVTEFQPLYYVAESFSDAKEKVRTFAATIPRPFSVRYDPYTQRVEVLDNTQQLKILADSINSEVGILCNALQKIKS
Put plainly: Phenylalanine hydroxylase cofactor assay. Particulars: rat liver enzyme; relative to tetrahydrobiopterin = 100. Here is the method: Phenylalanine hydroxylase was measured as described in Shiman, R. et al., (J. Biol. Chem. 254: 11300 (1979)) except that the product of the reaction (tyrosine) was measured fluorometrically using the method of Waalkes, T. P. and Udenfriend, S. (J. Lab. Clin. Med. 50: 733 (1957). Phenylalanine hydroxylase was prepared from rat liver using hydrophobic chromatography (Shiman, R. et al. (J. Biol. Chem. 254: 11,300 (1979)). The specific activity of the enzyme, using BH4 as the co-factor, was 1.0 μmol/mg protein per minute at 37°.

Assay [2] has as its system Dihydropteridine reductase. The experiment in a line: Dihydropteridine reductase assay. The settings on record: quinonoid dihydro form; relative to tetrahydrobiopterin form = 100. Here is the method: Dihydropteridine reductase was assayed by the method of Craine, et al., (J. Biol. Chem., 247, 6082 (1972)).

Each structure is given as a SMILES string.

Chain of Tyrosine hydroxylase (P07101 whole entry): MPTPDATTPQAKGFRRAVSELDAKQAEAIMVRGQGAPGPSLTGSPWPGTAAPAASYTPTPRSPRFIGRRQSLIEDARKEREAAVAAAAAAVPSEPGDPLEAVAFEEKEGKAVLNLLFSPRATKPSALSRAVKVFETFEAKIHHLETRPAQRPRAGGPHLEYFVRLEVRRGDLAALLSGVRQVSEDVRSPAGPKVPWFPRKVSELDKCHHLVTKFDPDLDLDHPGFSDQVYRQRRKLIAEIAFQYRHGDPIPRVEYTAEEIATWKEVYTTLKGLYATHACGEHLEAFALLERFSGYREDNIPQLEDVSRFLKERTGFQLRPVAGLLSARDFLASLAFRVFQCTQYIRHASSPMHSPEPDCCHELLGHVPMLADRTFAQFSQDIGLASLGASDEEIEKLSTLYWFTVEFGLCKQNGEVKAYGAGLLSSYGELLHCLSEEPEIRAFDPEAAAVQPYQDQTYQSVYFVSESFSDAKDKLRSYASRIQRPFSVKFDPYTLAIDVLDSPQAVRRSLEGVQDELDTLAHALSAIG

As for `C[C@H](O)[C@H](O)[C@H]1CNc2nc(N)[nH]c(=O)c2N1` [Tetrahydrobiopterin], the “Dihydrofolate reductase V” value on bovine liver DHFR was found to be 100%. Besides, the “Tyrosine hydroxylase Vmax” value on Tyrosine hydroxylase turned out to be 100%. At Tryptophan hydroxylase, this compound came in with a Tryptophan hydroxylase Vmax of 100%. In assay [1], this compound gave a Phenylalanine hydroxylase Vmax of 100%. In addition, the “Dihydropteridine reductase Vmax” value in assay [2] came out at 100%.

As for `C[C@H](O)[C@H](O)C1=Nc2c(nc(N)[nH]c2=O)NC1` [7,8-Dihydrobiopterin], the “Rate of reduction by DHFR relative to dihydrofolate” value at bovine liver DHFR (relative to natural substrate dihydrofolate) was found to be 2.5%.

For `COCC1CNc2nc(N)[nH]c(=O)c2N1` (racemic) [6-Methoxymethyl-tetrahydropterin, (+-)-2-Amino-5,6,7,8-tetrahydro-6-methoxymethyl-4(3H)-pteridinone], the “Dihydrofolate reductase V” value at bovine liver DHFR was 800%. The “Tyrosine hydroxylase Vmax” value on Tyrosine hydroxylase was 124%. The compound further displayed a Tryptophan hydroxylase Vmax at Tryptophan hydroxylase of 54%. Also, the Phenylalanine hydroxylase Vmax in assay [1] was found to be 79%. In assay [2], the “Dihydropteridine reductase Vmax” value amounted to 295%.

Values taken from patent US4701455A, “Biopterin analogs” (Burroughs Wellcome Co., priority 1983, dated 1987).
